Test results: ChEMBL document CHEMBL1141602, “Chemical library and structure-activity relationships of 11-demethyl-12-oxo calanolide A analogues as anti-HIV-1 agents” (J Med Chem, 2008)
In brackets after ≈: the same amount, converted by molar mass.

Key:
[1] = tested on: Human immunodeficiency virus 1; test: Antiviral activity against HIV1 at 1.0 uM; type: functional
HOS = test: Toxicity in CD4 expressing HOS cells at 10 uM; type: cell-based; settings: human
[2] = tested on: Human immunodeficiency virus 1; test: Antiviral activity against HIV1; type: functional, organism-based
[3] = Therapeutic index, ratio of IC50 for HOS cells to EC50 for human HIV1; type: cell-based; settings: read-out: Ratio IC50/EC50
[4] = tested on: Mycobacterium tuberculosis; test: Antimicrobial activity against Mycobacterium tuberculosis; type: functional

Structure (SMILES): CC1CC(=O)c2c(c3c(c4c(-c5ccc([N+](=O)[O-])cc5)cc(=O)oc24)OC(C)(C)C=C3)O1 (stereo unspecified)
- inhibition at 1 µM [1]: 51.9%

Structure (SMILES): CCCCc1cc(=O)oc2c3c(c4c(c12)OC(c1ccccc1)C=C4)OC(C)CC3=O (stereo unspecified)
- Activity (HOS): 10%
- inhibition at 1 µM [1]: 96.4%

Structure (SMILES): CCCCC1C=Cc2c3c(c4oc(=O)cc(CCC(F)(F)F)c4c2O1)C(=O)CC(C)O3 (stereo unspecified)
- inhibition at 1 µM [1]: 53.6%

Structure (SMILES): CCCc1cc(=O)oc2c1c1c(c3occc(=O)c32)C=CC(C)(C)O1
- inhibition at 1 µM [1]: 64.9%

Structure (SMILES): CCc1cc(=O)oc2c3c(c4c(c12)OC(c1ccccc1)C=C4)OC(C)CC3=O (stereo unspecified)
- Activity (HOS): 10%
- inhibition at 1 µM [1]: 96.4%

Structure (SMILES): CCCc1cc(=O)oc2c3c(c4c(c12)OC(CCC)C=C4)OC(C)CC3=O (stereo unspecified)
- inhibition at 1 µM [1]: 54.1%

Structure (SMILES): CCCCCC1CC(=O)c2c(c3c(c4c(CCC)cc(=O)oc24)OC(C)(C)C=C3)O1 (stereo unspecified)
- Activity (HOS): < 10%
- inhibition at 1 µM [1]: 46.4%

Structure (SMILES): C/C=C/C1C=Cc2c3c(c4oc(=O)cc(CC)c4c2O1)C(=O)CC(C)O3 (stereo unspecified)
- inhibition at 1 µM [1]: 56.4%

Structure (SMILES): CCCC1C=Cc2c3c(c4oc(=O)cc(CC)c4c2O1)C(=O)CC(C)O3 (stereo unspecified)
- Activity (HOS): 10%
- inhibition at 1 µM [1]: 97%

Structure (SMILES): CCCc1c(F)c(=O)oc2c3c(c4c(c12)OC(C)(C)C=C4)OC(C)CC3=O (stereo unspecified)
- Activity (HOS): 10%
- inhibition at 1 µM [1]: 45.3%

Structure (SMILES): CCc1c(F)c(=O)oc2c3c(c4c(c12)OC(C)(C)C=C4)OC(C)CC3=O (stereo unspecified)
- Activity (HOS): 10%

Structure (SMILES): CCCc1cc(=O)oc2c3c(c4c(c12)OC(C)(C)C=C4)OC(CCC)CC3=O (stereo unspecified)
- EC50 [2]: 32.5 nM
- selectivity ratio [3]: 102
- Activity (HOS): < 10%
- inhibition at 1 µM [1]: 61.9%

Structure (SMILES): C/C=C/C1C=Cc2c3c(c4oc(=O)c(F)c(CC)c4c2O1)C(=O)CC(C)O3 (stereo unspecified)
- inhibition at 1 µM [1]: 46.2%

Structure (SMILES): CCCc1cc(=O)oc2c3c(c4c(c12)OC(C)C=C4)OCC(C)C3=O (stereo unspecified)
- Activity (HOS): 10%
- inhibition at 1 µM [1]: 62.4%

Structure (SMILES): C/C=C/C1C=Cc2c3c(c4oc(=O)c(Cl)c(CCC)c4c2O1)C(=O)CC(C)O3 (stereo unspecified)
- inhibition at 1 µM [1]: 57.3%

Structure (SMILES): CCCc1c(Cl)c(=O)oc2c3c(c4c(c12)OCC(C)C4OCC)OC(C)CC3=O (stereo unspecified)
- inhibition at 1 µM [1]: 51.7%

Structure (SMILES): CCCCC1C=Cc2c3c(c4oc(=O)cc(CCC)c4c2O1)C(=O)C(C)CO3 (stereo unspecified)
- Activity (HOS): < 10%
- inhibition at 1 µM [1]: 35.2%

Structure (SMILES): CCCc1cc(=O)oc2c3c(c4c(c12)OC(C)(C)C=C4)OC(c1ccc(C)cc1)CC3=O (stereo unspecified)
- inhibition at 1 µM [1]: 57%

Structure (SMILES): CCCc1cc(=O)oc2c3c(c4c(c12)OC(c1ccccc1[N+](=O)[O-])C=C4)OC(C)CC3=O (stereo unspecified)
- inhibition at 1 µM [1]: 52.6%

Structure (SMILES): CCc1c(F)c(=O)oc2c3c(c4c(c12)OC(C)C=C4)OC(C)CC3=O (stereo unspecified)
- inhibition at 1 µM [1]: 39.5%

Structure (SMILES): CCCc1c(Cl)c(=O)oc2c3c(c4c(c12)OC(c1ccccc1)C=C4)OC(C)CC3=O (stereo unspecified)
- Activity (HOS): > 80%
- inhibition at 1 µM [1]: 96.3%

Structure (SMILES): CCCc1cc(=O)oc2c3c(c4c(c12)OC(C)(C)C=C4)OCC(C)C3=O (stereo unspecified)
- Activity (HOS): 10%
- inhibition at 1 µM [1]: 38.9%

Structure (SMILES): CCc1cc(=O)oc2c3c(c4c(c12)OC(C)(C)C=C4)OC(C)CC3=O (stereo unspecified)
- EC50 [2]: 270 nM
- selectivity ratio [3]: > 1000
- inhibition at 1 µM [1]: 73.2%

Structure (SMILES): CCCc1cc(=O)oc2c3c(c4c(c12)OC(c1ccccc1)C=C4)OCC(C)C3=O (stereo unspecified)
- Activity (HOS): < 10%

Structure (SMILES): CCCc1c(Cl)c(=O)oc2c3c(c4c(c12)OCC(C)=C4)OC(C)CC3=O (stereo unspecified)
- inhibition at 1 µM [1]: 49.1%

Structure (SMILES): C/C=C/C1C=Cc2c3c(c4oc(=O)cc(CCC)c4c2O1)C(=O)C(C)CO3 (stereo unspecified)
- inhibition at 1 µM [1]: 37.8%

Structure (SMILES): CCCCc1cc(=O)oc2c3c(c4c(c12)OC(C)C=C4)OC(C)CC3=O (stereo unspecified)
- inhibition at 1 µM [1]: 75.4%

Structure (SMILES): CC1CC(=O)c2c(c3c(c4c5c(c(=O)oc24)CCCC5)OC(C)(C)C=C3)O1 (stereo unspecified)
- inhibition at 1 µM [1]: 67%

Structure (SMILES): CCCCC1C=Cc2c3c(c4oc(=O)cc(CC)c4c2O1)C(=O)CC(C)O3 (stereo unspecified)
- Activity (HOS): 10%
- inhibition at 1 µM [1]: 96.7%

Structure (SMILES): CCCc1c(F)c(=O)oc2c3c(c4c(c12)OCC(C)=C4)OC(C)CC3=O (stereo unspecified)
- inhibition at 1 µM [1]: 47.1%

Structure (SMILES): CCc1cc(=O)oc2c3c(c4c(c12)OC(C)C=C4)OC(C)CC3=O (stereo unspecified)
- inhibition at 1 µM [1]: 57.4%

Structure (SMILES): CCCc1cc(=O)oc2c3c(c4c(c12)OC(c1ccccc1[N+](=O)[O-])CC4OCC)OC(C)CC3=O (stereo unspecified)
- Activity (HOS): < 10%
- inhibition at 1 µM [1]: 61%

Structure (SMILES): CC1CC(=O)c2c(c3c(c4c(CN5CCN(C)CC5)cc(=O)oc24)OC(C)(C)C=C3)O1 (stereo unspecified)
- inhibition at 1 µM [1]: 48.3%

Structure (SMILES): CC1CC(=O)c2c(c3c(c4c(CCC(F)(F)F)cc(=O)oc24)OC(c2ccccc2)C=C3)O1 (stereo unspecified)
- inhibition at 1 µM [1]: 47.6%

Structure (SMILES): COc1cc(-c2cc(=O)oc3c4c(c5c(c23)OC(C)(C)C=C5)OC(C)CC4=O)cc(OC)c1OC (stereo unspecified)
- inhibition at 1 µM [1]: 58%

Structure (SMILES): CCCc1cc(=O)oc2c3c(c4c(c12)OC(C)(C)C=C4)OC(c1ccccc1)CC3=O (stereo unspecified)
- Activity (HOS): < 10%
- inhibition at 1 µM [1]: 62.7%

Structure (SMILES): CCCc1c(Cl)c(=O)oc2c3c(c4c(c12)OC(C)C=C4)OC(C)CC3=O (stereo unspecified)
- inhibition at 1 µM [1]: 55.7%

Structure (SMILES): CCCc1c(Cl)c(=O)oc2c3c(c4c(c12)OC(C)(C)C=C4)OC(C)CC3=O (stereo unspecified)
- EC50 [2]: 370 nM
- selectivity ratio [3]: 243
- inhibition at 1 µM [1]: 68.1%

Structure (SMILES): CCCc1cc(=O)oc2c3c(c4c(c12)OC(C)(C)C=C4)OC(CBr)CC3=O (stereo unspecified)
- EC50 [2]: 2.85 nM
- selectivity ratio [3]: > 10500
- inhibition at 1 µM [1]: 93.5%

Structure (SMILES): CCCc1cc(=O)oc2c3c(c4c(c12)OC(C)(C)C=C4)OC(C)CC3=O (racemic)
- inhibition at 1 µM [1]: 73.1%

Structure (SMILES): CCCc1cc(=O)oc2c3c(c4c(c12)OC(C)(C)C=C4)OC(C)CC3O (racemic)
- EC50 [2]: 310 nM

Structure (SMILES): CCCc1cc(=O)oc2c3c(c4c(c12)OC(C)(C)C=C4)O[C@@H]1CCCC[C@@H]1C3=O (relative stereo)
- Activity (HOS): < 10%
- inhibition at 1 µM [1]: 59.3%

Structure (SMILES): CCCc1cc(=O)oc2c3c(c4c(c12)OC(C)(C)C=C4)O[C@H]1CCCC[C@@H]1C3=O (relative stereo)
- Activity (HOS): < 10%
- inhibition at 1 µM [1]: 40%

Structure (SMILES): CCCc1cc(=O)oc2c3c(c4c(c12)OC(C)(C)C=C4)OC(C)(C)CC3=O [114, 10,10-DIMETHYL-11-DEMETHYL-12-OXO CALANOLIDE A]
- EC50 [2]: 640 nM
- selectivity ratio [3]: 47
- inhibition at 1 µM [1]: 68.3%

Structure (SMILES): CCCc1cc(=O)oc2c3c(c4c(c12)OC(C)(C)C=C4)O[C@H](C)[C@@H](C)[C@@H]3O [CALANOLIDE A]
- MIC [4]: 3.13 µg/mL (≈ 8.45 µM)
- EC50 [2]: 100 nM
